Test results taken from ChEMBL document CHEMBL5338747, “Discovery of Quaternized Pyridine-Thiazole-Pleuromutilin Derivatives with Broad-Spectrum Antibacterial and Potent Anti-MRSA Activity” (J Med Chem, 2023).
Values after ≈ are worked out from the molar mass of the structure shown.

Key:
Staphylococcus aureus [1] = experiment: Antibacterial activity against methicillin-resistant Staphylococcus aureus ATCC 33591 assessed as inhibition of bacterial growth incubated for 24 hrs by broth microdilution method; assay type: functional
Acinetobacter baumannii = experiment: Antibacterial activity against Acinetobacter baumannii ATCC 19606 assessed as inhibition of bacterial growth incubated for 24 hrs by broth microdilution method; assay type: functional
[2] = tested on: Staphylococcus epidermidis; experiment: Antibacterial activity against methicillin-resistant Staphylococcus epidermidis ATCC 51625 assessed as inhibition of bacterial growth incubated for 24 hrs by broth microdilution method; assay type: functional
Salmonella enterica = experiment: Antibacterial activity against Salmonella enterica ATCC 14028 assessed as inhibition of bacterial growth incubated for 24 hrs by broth microdilution method; assay type: functional
Staphylococcus aureus [3] = experiment: Antibacterial activity against methicillin-resistant Staphylococcus aureus ATCC 43300 assessed as inhibition of bacterial growth incubated for 24 hrs by broth microdilution method; assay type: functional
Escherichia coli [4] = experiment: Antibacterial activity against Escherichia coli CMCC 44103 assessed as inhibition of bacterial growth incubated for 24 hrs by broth microdilution method; assay type: functional
Escherichia coli [5] = experiment: Antibacterial activity against Escherichia coli ATCC 25922 assessed as inhibition of bacterial growth incubated for 24 hrs by broth microdilution method; assay type: functional
[6] = Aqueous solubility of the compound in physiological saline measured after 12 hrs by UV spectrophotometric analysis; assay type: physicochemical
Staphylococcus aureus [7] = experiment: Antibacterial activity against […] assessed as inhibition of bacterial growth incubated for 24 hrs by broth microdilution method; assay type: functional; settings: ATCC 29213

| SMILES | MIC (Staphylococcus aureus [1]) | MIC (Acinetobacter baumannii) | MIC [2] | MIC (Salmonella enterica) | MIC (Staphylococcus aureus [3]) | MIC (Escherichia coli [4]) | MIC (Escherichia coli [5]) | solubility at 12 h [6] | MIC (Staphylococcus aureus [7]) |
| --- | --- | --- | --- | --- | --- | --- | --- | --- | --- |
| C=C[C@]1(C)C[C@@H](OC(=O)CSc2nc(-c3cc[n+](Cc4ccc(C#N)cc4)cc3)cs2)[C@]2(C)[C@H](C)CC[C@]3(CCC(=O)[C@H]32)[C@@H](C)[C@@H]1O.[Br-] | 64 µg/mL | 32 µg/mL | 16 µg/mL | 32 µg/mL | 2 µg/mL | 8 µg/mL | 2 µg/mL | 683 µM | 0.125 µg/mL |
| Br.C=C[C@]1(C)C[C@@H](OC(=O)CSc2nnc(-c3cc[n+](Cc4ccc([N+](=O)[O-])cc4)cc3)o2)[C@]2(C)[C@H](C)CC[C@]3(CCC(=O)[C@H]32)[C@@H](C)[C@@H]1O | 32 µg/mL | 64 µg/mL | 32 µg/mL | 128 µg/mL | 64 µg/mL | 128 µg/mL | > 128 µg/mL | – | 32 µg/mL |
| C=C[C@]1(C)C[C@@H](OC(=O)CSc2nc(-c3cc[n+](Cc4cc(F)cc(F)c4)cc3)cs2)[C@]2(C)[C@H](C)CC[C@]3(CCC(=O)[C@H]32)[C@@H](C)[C@@H]1O.[Br-] | 64 µg/mL | 8 µg/mL | 64 µg/mL | 16 µg/mL | 64 µg/mL | 32 µg/mL | 16 µg/mL | 803 µM | 64 µg/mL |
| C=C[C@]1(C)C[C@@H](OC(=O)CSc2nc(-c3cc[n+](Cc4ccsc4)cc3)cs2)[C@]2(C)[C@H](C)CC[C@]3(CCC(=O)[C@H]32)[C@@H](C)[C@@H]1O.[Br-] | 1 µg/mL | 8 µg/mL | 1 µg/mL | 2 µg/mL | 0.5 µg/mL | 0.5 µg/mL | 1 µg/mL | 702 µM | 0.25 µg/mL |
| C=C[C@]1(C)C[C@@H](OC(=O)CSc2nnc(-c3ccncc3)o2)[C@]2(C)[C@H](C)CC[C@]3(CCC(=O)[C@H]32)[C@@H](C)[C@@H]1O | 64 µg/mL (≈ 119 µM) | 128 µg/mL (≈ 237 µM) | 128 µg/mL (≈ 237 µM) | 64 µg/mL (≈ 119 µM) | 128 µg/mL (≈ 237 µM) | 128 µg/mL (≈ 237 µM) | > 128 µg/mL | – | 16 µg/mL (≈ 29.6 µM) |
| C=C[C@]1(C)C[C@@H](OC(=O)CSc2nnc(-c3cc[n+](Cc4ccccc4)cc3)o2)[C@]2(C)[C@H](C)CC[C@]3(CCC(=O)[C@H]32)[C@@H](C)[C@@H]1O.[Br-] | 64 µg/mL | 128 µg/mL | 128 µg/mL | 32 µg/mL | 32 µg/mL | 64 µg/mL | 128 µg/mL | – | 16 µg/mL |
| C=C[C@]1(C)C[C@@H](OC(=O)CSc2nnc(-c3cc[n+](Cc4ccc(C#N)cc4)cc3)o2)[C@]2(C)[C@H](C)CC[C@]3(CCC(=O)[C@H]32)[C@@H](C)[C@@H]1O.[Br-] | 32 µg/mL | > 128 µg/mL | 64 µg/mL | 32 µg/mL | 16 µg/mL | 64 µg/mL | 64 µg/mL | – | 16 µg/mL |
| C=C[C@]1(C)C[C@@H](OC(=O)CSc2nc(-c3cc[n+](Cc4ccccc4)cc3)cs2)[C@]2(C)[C@H](C)CC[C@]3(CCC(=O)[C@H]32)[C@@H](C)[C@@H]1O.[Br-] | 1 µg/mL | 4 µg/mL | 4 µg/mL | – | – | 0.25 µg/mL | – | 871 µM | 0.125 µg/mL |
| C=C[C@]1(C)C[C@@H](OC(=O)CSc2nc(-c3cc[n+](CCCCCCCCCC)cc3)cs2)[C@]2(C)[C@H](C)CC[C@]3(CCC(=O)[C@H]32)[C@@H](C)[C@@H]1O.[Br-] | 1 µg/mL | 4 µg/mL | 2 µg/mL | 1 µg/mL | 2 µg/mL | 4 µg/mL | 2 µg/mL | 203 µM | 0.25 µg/mL |
| C=C[C@]1(C)C[C@@H](OC(=O)CSc2nc(-c3cc[n+](Cc4ccc(C(F)(F)F)cc4)cc3)cs2)[C@]2(C)[C@H](C)CC[C@]3(CCC(=O)[C@H]32)[C@@H](C)[C@@H]1O.[Br-] | 2 µg/mL | 2 µg/mL | 2 µg/mL | 2 µg/mL | 4 µg/mL | 2 µg/mL | 1 µg/mL | 899 µM | 0.25 µg/mL |
| C=C[C@]1(C)C[C@@H](OC(=O)CSc2nc(-c3cc[n+](Cc4ccc5ccccc5c4)cc3)cs2)[C@]2(C)[C@H](C)CC[C@]3(CCC(=O)[C@H]32)[C@@H](C)[C@@H]1O.[Br-] | 16 µg/mL | 16 µg/mL | 4 µg/mL | 4 µg/mL | 4 µg/mL | 8 µg/mL | 16 µg/mL | 483 µM | 4 µg/mL |
| C=C[C@]1(C)C[C@@H](OC(=O)CSc2nnc(-c3cc[n+](Cc4ccc(C)cc4)cc3)o2)[C@]2(C)[C@H](C)CC[C@]3(CCC(=O)[C@H]32)[C@@H](C)[C@@H]1O.[Br-] | 16 µg/mL | 128 µg/mL | 64 µg/mL | 32 µg/mL | 16 µg/mL | 64 µg/mL | 32 µg/mL | – | 4 µg/mL |
| C=C[C@]1(C)C[C@@H](OC(=O)CSc2nc(-c3ccncc3)cs2)[C@]2(C)[C@H](C)CC[C@]3(CCC(=O)[C@H]32)[C@@H](C)[C@@H]1O | 16 µg/mL (≈ 28.8 µM) | 64 µg/mL (≈ 115 µM) | 32 µg/mL (≈ 57.7 µM) | 32 µg/mL (≈ 57.7 µM) | 32 µg/mL (≈ 57.7 µM) | 32 µg/mL (≈ 57.7 µM) | 64 µg/mL (≈ 115 µM) | – | 8 µg/mL (≈ 14.4 µM) |
| C=C[C@]1(C)C[C@@H](OC(=O)CSc2nc(-c3cc[n+](CCCCCCCCCCCCCCCC)cc3)cs2)[C@]2(C)[C@H](C)CC[C@]3(CCC(=O)[C@H]32)[C@@H](C)[C@@H]1O.[Br-] | > 128 µg/mL | > 128 µg/mL | > 128 µg/mL | > 128 µg/mL | 64 µg/mL | > 128 µg/mL | > 128 µg/mL | 187 µM | 64 µg/mL |
| C=C[C@]1(C)C[C@@H](OC(=O)CSc2nc(-c3cc[n+](Cc4ccc(-c5ccccc5)cc4)cc3)cs2)[C@]2(C)[C@H](C)CC[C@]3(CCC(=O)[C@H]32)[C@@H](C)[C@@H]1O.[Br-] | 2 µg/mL | 2 µg/mL | 2 µg/mL | 2 µg/mL | 1 µg/mL | 1 µg/mL | 1 µg/mL | 271 µM | 0.5 µg/mL |
| C=C[C@]1(C)C[C@@H](OC(=O)CSc2nc(-c3cc[n+](Cc4cc(C)cc(C)c4)cc3)cs2)[C@]2(C)[C@H](C)CC[C@]3(CCC(=O)[C@H]32)[C@@H](C)[C@@H]1O.[Br-] | 64 µg/mL | 8 µg/mL | 128 µg/mL | 16 µg/mL | 128 µg/mL | 32 µg/mL | 32 µg/mL | 543 µM | 128 µg/mL |
| C=C[C@]1(C)C[C@@H](OC(=O)CSc2nc(-c3cc[n+](Cc4ccc(Cl)cc4)cc3)cs2)[C@]2(C)[C@H](C)CC[C@]3(CCC(=O)[C@H]32)[C@@H](C)[C@@H]1O.[Br-] | 2 µg/mL | 2 µg/mL | 8 µg/mL | 2 µg/mL | 2 µg/mL | 1 µg/mL | 0.5 µg/mL | 649 µM | 0.125 µg/mL |
| C=C[C@]1(C)C[C@@H](OC(=O)CSc2nc(-c3cc[n+](Cc4ccc(OC(F)(F)F)cc4)cc3)cs2)[C@]2(C)[C@H](C)CC[C@]3(CCC(=O)[C@H]32)[C@@H](C)[C@@H]1O.[Br-] | 2 µg/mL | 8 µg/mL | 4 µg/mL | 4 µg/mL | 2 µg/mL | 32 µg/mL | 2 µg/mL | 537 µM | 2 µg/mL |
